Results reported in article PMC7613620, “Reaction hijacking of tyrosine tRNA synthetase as a whole-of-life-cycle antimalarial strategy” (Science (New York, N.Y.), 2022).
Read-outs that look alike come from different tables or passages of the source.

Key:
[1] = test system: aptamer-regulatable control line; assay: Growth inhibition of aptamer-regulatable control line (luciferase, 72 h); format: cell-based, Plasmodium falciparum
Description: 677 parasites using CRISPR-Cas9 and homology-driven repair (55, 56). A line harbourbing an aptamer-
678 regulatable fluorescent protein (eYFP) integrated in the cg6 locus is used as the control (55). […]
696 Stock solutions of ML901, DHA or borrelidin (Cayman Chemicals) were dispensed into 96-well U-bottom
697 BD Falcon™ plates and serially diluted in complete medium to yield final concentrations ranging from 20-
698 0.08 nM. Synchronous ring-stage YRScyt conditional knockdown line and the aptamer-regulatable control
699 line in varying aTc concentrations (high = 50 or 500 nM, low = 1 nM, and no aTc) were distributed into
700 the drug plate. Lowest drug treatment and a lethal dose of chloroquine (200 nM) served as reference
701 controls. Growth inhibition was analysed after 72 h using the Renilla-Glo(R) Luciferase Assay System (ref
702 no E2750 Promega) and the GloMax® Discover Multimode Microplate Reader (Promega), and IC50 values
703 were obtained from corrected dose-response curves using GraphPad Prism (version 8; GraphPad Software). […]
706 CRISPR/Cas9 was used to generate parasites encoding the S234C mutation in exon 2 of PfYRS, as shown
707 in Suppl Figure 6. Two guide RNAs (gRNA1: […] and gRNA2:
708 […]) were selected using Benchling (benchling.com), and cloned into the
709 pDC2-coCas9-gRNA plasmid essentially as described previously (58). A donor template of 645 bp, […]

PfYRS = PfYRS (Plasmodium falciparum, UniProt Q8IAR7); assay: ATP consumption by PfYRS (Kinase-Glo); format: biochemical
Description: 804 An intron was detected in the PftRNATyr sequence, that was not indicated in PlasmoDB. A T7 RNA
805 polymerase promoter sequence was added to the 5’ end of the DNA sequence of P. falciparum and H.
806 sapiens tRNATyr. This DNA template and its complementary strand were custom-synthesized by Sigma-
807 Aldrich. Two oligonucleotides were annealed at 95°C for 5 min and the double-stranded DNA template
808 was used for in vitro transcription. The transcription reaction was incubated at 37°C overnight. The reaction
809 mixture consists of template DNA, T7 RNA polymerase and NTP mix as per manufacturer's instructions
810 (HiScribe™ T7 Quick High Yield RNA Synthesis Kit, NEB). On the following day, the reaction mixture
811 was treated with DNase I at 37°C for 15 min. tRNA was purified using RNA clean-up spin columns
812 (Monarch® RNA Cleanup Kit, NEB) to remove contaminants from the transcription reaction. […]
820 was sealed and analysed using StepOnePlus Real-Time PCR system (Applied Biosystems). […]
822 as the first derivative curve of the raw fluorescence values. […]
824 values were calculated from DTm using the equation: ln(KD/[L]) = -131.5 x (∆Tm/Tm,apo) - 1.9, where [L] […]
828 Consumption of ATP by YRS was measured using a luciferase-based assay as per the manufacturer’s […]
836 The aminoacylation activity of YRS was measured by the incorporation of tritiated L-tyrosine into tRNATyr […]

Sequence of PfYRS (Q8IAR7 entry or part of it): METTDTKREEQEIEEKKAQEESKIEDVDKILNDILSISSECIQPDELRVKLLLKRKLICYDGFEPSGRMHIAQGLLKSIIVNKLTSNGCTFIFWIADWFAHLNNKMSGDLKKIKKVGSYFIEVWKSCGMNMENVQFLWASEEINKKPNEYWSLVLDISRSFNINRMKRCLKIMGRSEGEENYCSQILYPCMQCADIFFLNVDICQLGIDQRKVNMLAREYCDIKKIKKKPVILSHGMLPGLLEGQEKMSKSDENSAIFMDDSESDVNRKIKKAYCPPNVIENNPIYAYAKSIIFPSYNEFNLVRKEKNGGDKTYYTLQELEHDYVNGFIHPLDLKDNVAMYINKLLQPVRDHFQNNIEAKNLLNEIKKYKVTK

Nc1ncnc2c1c(OC(F)F)nn2[C@@H]1O[C@H](COS(N)(=O)=O)[C@@H](O)[C@H]1O [ML901]
Fold change in IC50 (high aTc/ no aTc), control line [1]: no change | IC50 ([1]; Plasmodium falciparum, read-out: IC50 against control line): 0.0024 ± 0.0002 µM | IC50 (PfYRS; in the absence of cognate tRNATyr, read-out: IC50 (-PftRNATyr), ATP consumption by PfYRS): > 500 µM | IC50 (PfYRS; in the presence of cognate tRNATyr, read-out: IC50 (+PftRNATyr), ATP consumption by PfYRS): 25 µM
